Reference: patent US8552208B2, “Analogs of tetramic acid” (University of Tennesseee Research Foundation, priority 2007, dated 2013)
In brackets after ≈: the same amount, converted by molar mass. Where two headings read alike, the source gives them in different places.

Legend:
[1] = tested on: Mycobacterium tuberculosis H37 Rv; experiment: Antibacterial activity assay (MIC, broth dilution); type: cell-based; settings: H37RV, 168 h; Mycobacterium tuberculosis H37 Rv; […]; read-out: MIC, TB
[2] = tested on: Bacillus anthracis Sterne 34F2; experiment: microbe, parasite or virus in culture; type: cell-based; settings: STERNE34F2, read-out: MIC, BA
[3] = tested on: Bacillus subtilis ATCC 23857; experiment: Antibacterial activity assay (MIC, broth dilution); type: cell-based; settings: ATCC23857; Bacillus subtilis ATCC 23857; read-out: MIC, BS
[4] = tested on: Streptococcus pneumoniae DAW30EC; experiment: Antibacterial activity assay (MIC, broth dilution); type: cell-based; settings: Streptococcus pneumoniae DAW30EC; read-out: MIC, SPn
[5] = tested on: Enterococcus faecalis ATCC 33186; experiment: Antibacterial activity assay (MIC, broth dilution); type: cell-based; settings: ATCC33186; Enterococcus faecalis ATCC 33186; read-out: MIC, EF
[6] = tested on: Methicillin Resistant Staphylococcus aureus ATCC 33591; experiment: Antibacterial activity assay (MIC, broth dilution); type: cell-based; settings: ATCC 33591 / MRSA, read-out: MIC, MRSA
[7] = tested on: Methicillin sensitive Staphylococcus aureus 8325 ATCC 35556; experiment: Antibacterial activity assay (MIC, broth dilution); type: cell-based; settings: ATCC 35556 / MSSA; Methicillin sensitive Staphylococcus aureus 8325 ATCC 35556; read-out: MIC, MSSA
[8] = tested on: Propionibacterium acnes ATCC 6919; experiment: Antibacterial activity assay (MIC, broth dilution); type: cell-based; settings: Cutibacterium acnes, ATCC6919; Propionibacterium acnes ATCC 6919; read-out: MIC, PA
[9] = tested on: Streptococcus pyogenes ATCC 700294; experiment: Antibacterial activity assay (MIC, broth dilution); type: cell-based; settings: ATCC700294; Streptococcus pyogenes ATCC 700294; read-out: MIC, SP
Cytotoxicity assay (MTT) = type: cell-based, monkey; settings: monkey, Vero cells, 72 hours, MTT, read-out: IC50 (Cytotoxicity): Concentration which reduces viability of Vero kidney cells by 50%
Procedure: (§1) Cytotoxicity assays of drugs of Formula I of Example 3 and of Formula II of Example 5 were performed using the Vero monkey kidney cell line (ATCC, CCL-81). Vero cells were grown in tissue culture flasks in Dulbecco's Modified Eagle's Medium (ATCC) supplemented with 10% fetal bovine serum and maintained in a humidified incubator (37° C., 5% CO2). Cells were removed with a cell scraper, collected by centrifugation and then suspended in fresh medium at ˜10^6 cells/mL. The cell suspensions were dispensed into 96-well microtiter plates (100 μl/well) and incubated for 18 hours at 37° C. before being used for cytotoxicity assays. Test compounds were subsequently added at concentrations ranging from 400-0.024 μg/mL and 0.1% vol/vol of Triton-X 100, which causes 100% death of cells, was included as a control. After incubating cells and compounds for 72 hours in humid air (37° C., 5% CO2) the cytopathic effects of compounds were determined using the MTT Cell Proliferation Assay (ATCC, Cat No. 30-1010K). The MTT solution reagent (10 μl) was added to each well and plates incubated at 37° C. until sufficient purple color development occurred in cells (3 hours). After detergent cell lysis, the purple formazan product was measured at 570 nm in a Synergy HT Biotek microplate reader. IC50 data was obtained from dose response curves plotted from percentage activity versus log10 concentration using Graphpad prism 5.

[10] = tested on: Vero monkey kidney cell line (ATCC, CCL-81); experiment: Cytotoxicity assay (MTT); type: cell-based; settings: IC50 divided by MIC against S. aureus 8325
Procedure: as §1

[11] = tested on: clinical isolates of MRSA (methicillin resistant S. aureus); type: cell-based
[12] = tested on: clinical isolates of MSSA (methicillin sensitive S. aureus); type: cell-based
[13] = tested on: MRSA (ATCC 35391) biofilm; experiment: Calgary Biofilm Device anti-biofilm activity; type: cell-based, Staphylococcus aureus; settings: Staphylococcus aureus, MRSA biofilm, triplicate runs listed singly
[14] = tested on: S. epidermidis (RP62A) biofilm; experiment: Calgary Biofilm Device anti-biofilm activity; type: cell-based; settings: Staphylococcus epidermidis, S. epidermidis biofilm, triplicate runs listed singly
[15] = tested on: MSSA (ATCC 25293) biofilm; experiment: Calgary Biofilm Device anti-biofilm activity; type: cell-based; settings: Staphylococcus aureus, MSSA biofilm, triplicate runs listed singly
[16] = read-out: MBEC = Minimum Biofilm Eradication Concentration
[17] = read-out: MBIC = Minimum Biofilm Inhibitory Concentration

Compound	MIC [1] [µg/mL]	MIC [2] [µg/mL]	MIC [3] [µg/mL]	MIC [4] [µg/mL]	MIC [5] [µg/mL]	MIC [6] [µg/mL]	MIC [7] [µg/mL]	MIC [8] [µg/mL]	MIC [9] [µg/mL]	IC50/MIC = Selectivity (therapeutic) index [10]	Antibiotic MIC ([11]; isolate MRSA-1) [µg/mL]	Antibiotic MIC ([11]; isolate MRSA-2) [µg/mL]	Antibiotic MIC ([11]; isolate MRSA-3) [µg/mL]	Antibiotic MIC ([11]; isolate MRSA-4) [µg/mL]	Antibiotic MIC ([11]; isolate MRSA-5) [µg/mL]	Antibiotic MIC ([11]; isolate MRSA-6) [µg/mL]	Antibiotic MIC ([11]; isolate MRSA-7) [µg/mL]	Antibiotic MIC ([11]; isolate MRSA-9) [µg/mL]	Antibiotic MIC ([11]; isolate MRSA-10) [µg/mL]	Antibiotic MIC ([12]; isolate MSSA-11) [µg/mL]	other results
CCCCN1C(=O)/C(=C(/C)O)C(=O)[C@@H]1CC(C)C [Compound 13j, (S,Z)-1-butyl-3-(1-hydroxyethylidene)-5-isobutylpyrrolidine-2,4-dione]	100 (≈ 395 µM)	12.5 (≈ 49.3 µM)	6.25 (≈ 24.7 µM)	100 (≈ 395 µM)	1.6 (≈ 6.32 µM)	6.25 (≈ 24.7 µM)	3.12 (≈ 12.3 µM)	0.8 (≈ 3.16 µM)	> 200	81.4	50	25	25	25	25	25	50	6.25	50	12.5	IC50 at 72 h (Cytotoxicity assay (MTT)): 254 µg/mL; Antibiotic MIC ([12]; isolate MSSA-12): 6.25 µg/mL; Antibiotic MIC ([12]; isolate MSSA-13): 12.5 µg/mL; Antibiotic MIC ([12]; isolate MSSA-14): 25 µg/mL; Antibiotic MIC ([12]; isolate MSSA-15): 3.12 µg/mL; Antibiotic MIC ([12]; isolate MSSA-16): 6.25 µg/mL; Antibiotic MIC ([12]; isolate MSSA-17): 6.25 µg/mL; Antibiotic MIC ([12]; isolate MSSA-18): 6.25 µg/mL; Antibiotic MIC ([12]; isolate MSSA-19): 3.12 µg/mL; Antibiotic MIC ([12]; isolate MSSA-20): 25 µg/mL
C/C(O)=C1\C(=O)[C@H](CC(C)C)N(Cc2ccc(-c3ccccc3)cc2)C1=O [Compound 13k, (S,Z)-1-(biphenyl-4-ylmethyl)-3-(1-hydroxyethylidene)-5-isobutylpyrrolidine-2,4-dione]	50 (≈ 138 µM)	0.4 (≈ 1.1 µM)	0.4 (≈ 1.1 µM)	12.5 (≈ 34.4 µM)	0.8 (≈ 2.2 µM)	0.8 (≈ 2.2 µM)	< 0.1	0.2 (≈ 0.55 µM)	25 (≈ 68.8 µM)	>197	1.6	1.6	1.6	1.6	1.6	0.8	0.8	1.6	0.8	1.6	IC50 at 72 h (Cytotoxicity assay (MTT); Vero monkey kidney cells (ATCC CCL-81)): 19.7 µg/mL; Antibiotic MIC ([11]; isolate MRSA-8): 0.4 µg/mL; Antibiotic MIC ([12]; isolate MSSA-12): 0.8 µg/mL; Antibiotic MIC ([12]; isolate MSSA-13): 0.8 µg/mL; Antibiotic MIC ([12]; isolate MSSA-14): 0.8 µg/mL; Antibiotic MIC ([12]; isolate MSSA-15): 0.4 µg/mL; Antibiotic MIC ([12]; isolate MSSA-16): 0.8 µg/mL; Antibiotic MIC ([12]; isolate MSSA-17): 0.8 µg/mL; Antibiotic MIC ([12]; isolate MSSA-18): 0.8 µg/mL; Antibiotic MIC ([12]; isolate MSSA-19): 0.8 µg/mL; Antibiotic MIC ([12]; isolate MSSA-20): 0.8 µg/mL; MBC [13, 16]: 100 µg/mL (≈ 275 µM); MIC [13, 17]: 0.8 µg/mL (≈ 2.2 µM); MBC [14, 16]: 200 µg/mL (≈ 550 µM); MIC [14, 17]: 1.6 µg/mL (≈ 4.4 µM); MBC [15, 16]: 100 µg/mL (≈ 275 µM); MIC [15, 17]: 3.12 µg/mL (≈ 8.58 µM)
